Key:
[1] = pH of 1 wt % solution in water; assay type: physicochemical; conditions: 1 wt % (1%) water solution
[2] = stability of water solution; assay type: physicochemical
[3] = from water solutions
[4] = Stability of Cu-ATP solution, Hunter Lab L*a*b* color readings; assay type: physicochemical; set-up: key to color reading "L": L* lightness: 100 = white to 0 = black; key to color reading "a": a*: negative = greener, positive = redder; key to color reading "b": b*: negative = bluer, positive = yellower; conditions: full light, ambient room temperature
From the text: It should be noted that, where relevant, composition ingredients and the like are provided in weight percentages. Further, where applicable, color measurements were done on a Hunter Lab color meter. This color meter measures color on a scale defined as L*a*b* scale. The term “L” is from 100 to 0, representing white and black colors (lightness and darkness), respectively. A (−) value of “a” indicates a more green color. A (+) value of “a” indicates a more red color. A (−) value of “b” indicates a more blue color. A (+) value of “b” indicates a more yellow color. Various numeric values of “a” and “b” indicate degree of respective colors. Mixed colors are thus indicated by a mixed value of L*a*b* as will be noted in various examples below. The materials used had the following properties. Adenosine triphosphate disodium hydrate (molecular weight 551 Da), glutathione (molecular weight 307 Da), copper gluconate (molecular weight 453 Da, Cu=14%), copper amino acid chelate (copper 12%), fructose-1,6-diphosphate dicalcium (molecular weight 416 Da), zinc gluconate (molecular weight 455 Da, Zn=1 4%), manganese gluconate (molecular weight 445 Da, Mn=12%). The analysis of trace metals quoted in ppm in various examples, as noted below, are within +-10%.
The solution “C” obtained in Example 2 was stored in a beaker with a plastic film wrapped over it. The solution was stored in full light (fluorescent lamps) under ambient room temperature conditions. The color readings were measured periodically, and any visually observed discolorations, or precipitate formations, if any, were also recorded, as noted below.

O=C(O)[C@H](O)[C@@H](O)[C@H](O)[C@H](O)CO [gluconic acid]
pH of 1 wt % solution in water [1]: 2.5

NC(=O)c1cccnc1.O=C1O[C@H]([C@@H](O)CO)C(O)=C1O [Niacinamide ascorbate]
pH of 1 wt % solution in water [1]: 3.7 | stability of water solution [2]: good | absorption into skin [3]: rapidly absorbed

Nc1ncnc2c1ncn2[C@@H]1O[C@H](COP(=O)(O)OP(=O)(O)OP(=O)(O)O)[C@@H](O)[C@H]1O [ATP, adenosine triphosphate]
pH of 1 wt % solution in water [1]: 2.0

NC(=O)c1cccnc1 [niacinamide]
pH of 1 wt % solution in water [1]: 6.3 | stability of water solution [2]: good

O=C1O[C@H]([C@@H](O)CO)C(O)=C1O [ascorbic acid]
pH of 1 wt % solution in water [1]: 2.6 | stability of water solution [2]: poor

Copper ATP [Cu-ATP Solution]
color reading "L" ([4]; 1 Week): 51.35 | color reading "a" ([4]; 1 Week): −35.38 | color reading "b" ([4]; 1 Week): −5.16 | color reading "L" ([4]; 4 Weeks): 50.54 | color reading "a" ([4]; 4 Weeks): −36.08 | color reading "b" ([4]; 4 Weeks): −5.56 | color reading "L" ([4]; Initial): 53.52 | color reading "a" ([4]; Initial): −33.58 | color reading "b" ([4]; Initial): −4.19
